Calls of active or inactive are those of the source.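 Rule for the calls: active = fitted curve drops below -35% activity at a concentration within twice the top valid tested dose; inconclusive = no clear call, values can overlap the other calls; inactive = signal rising instead of falling, among other cases.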

One assay in a line: ATP-based viability loss in HepG2 cells – cell-based, CellTiter-Glo luminescence, cherry-pick, set 3, cytotoxicity control, dose response (AID 720589). The conditions noted are these: HepG2 viability, ATP luminescence (CellTiter-Glo), 72 h; at 0.011 µM; active compounds read low; 0% = untreated, negative = ATP loss.
For the compound `CC(C)c1ccc(OCc2cccc(C(=O)N/N=C/c3cccnc3)c2)cc1`, the max activity was 8.88% (inactive).

With `COc1ccc(C(=O)OCC(=O)Nc2ccc(Cl)c(C(F)(F)F)c2)c(OC)c1OC`, the max activity was -15% (inactive).

`C[C@@H]1CN([C@@H](C)CO)S(=O)(=O)c2ccc(C#Cc3ccncc3)cc2O[C@H]1CN(C)C(=O)C1CCOCC1`: the max activity was -28.4% (inactive).

Turning to `COc1cc(/C=N/NS(=O)(=O)c2ccc3ccccc3c2)ccc1OCc1ccc(C(=O)O)cc1`, the max activity was 33.7% (inactive).

For `C=CC[n+]1c(-c2ccc(C)cc2)csc1Nc1ccc(NC(C)=O)cc1`, the max activity is 20.8% (inactive).

Turning to `COc1ccc(N=C2C(=O)Nc3ccc(C)c(Br)c32)cc1`, the max activity was 23.9% (inactive).

Regarding `C[C@@H]1CN([C@@H](C)CO)S(=O)(=O)c2ccc(C#Cc3ccncc3)cc2O[C@H]1CN(C)S(=O)(=O)c1ccccc1`, the max activity is -29.6% (inactive).

With `COc1ccccc1NS(=O)(=O)c1cc(NC(=O)c2cc3ccccc3oc2=O)ccc1C`, the max activity was -20.4% (inactive).

`COc1ccc(/C=N/Nc2ccc(C(=O)O)cc2)cc1Br`: the max activity is -16% (inactive).

For the compound `Cc1cc(C(=O)NNC(=O)c2ccc(S(=O)(=O)N(C)C)cc2)c(C)o1`, the max activity is 20% (inactive).

Regarding `COc1cc(C(c2c(C)[nH][nH]c2=O)c2c(C)[nH][nH]c2=O)ccc1OC(C)C`, the max activity was 22.1% (inactive).

Still in this assay, the particulars now being: HepG2 viability, ATP luminescence (CellTiter-Glo), 72 h; at 0.035 µM; active compounds read low.
Take `O=C1NC2C(=CC(O)C(O)C2O)c2cc3c(cc21)OCO3` (configuration not stated): the max activity was -17.9% (inactive).

Staying with this assay, now noted: HepG2 viability, ATP luminescence (CellTiter-Glo), 72 h; at 0.035 µM; active compounds read low; 0% = untreated, negative = ATP loss.
Consider `COc1ccc(S(=O)(=O)N2CC[C@@H]3[C@H](CO)Nc4ccc(-c5ccc(C#N)cc5)cc4[C@@H]32)cc1`, for which the max activity was -30.4% (inactive).

For `CN1c2ccc(-c3ccc(C#N)cc3)cc2[C@H]2[C@H](CCN2S(=O)(=O)c2cccc(F)c2)[C@H]1CO`, the max activity is -29.8% (inactive).

`O=C(O)CN1C(=O)/C(=C\c2ccccc2OCc2ccc(Cl)cc2Cl)SC1=S`: the max activity is -18.9% (inactive).

As to `Nc1ncn([C@@H]2O[C@H](CO)[C@@H](O)[C@H]2O)c(=O)n1`, the max activity was 16% (inactive).

For the compound `COc1ccc(/C=C2\SC(=O)N(CCCC(=O)Nc3ccc(C(=O)O)cc3)C2=O)cc1`, the max activity was 21% (inactive).

On to `C[C@@H]1CN([C@H](C)CO)S(=O)(=O)c2ccc(C#Cc3ccncc3)cc2O[C@@H]1CN(C)C(=O)Nc1ccc2c(c1)OCO2`, for which the max activity is -31.9% (inactive).

As for `Cc1ccc(C(=O)CN2C(=O)c3ccccc3S2(=O)=O)cc1`, the max activity was 23.9% (inactive).

The same assay, now with this note: HepG2 viability, ATP luminescence (CellTiter-Glo), 72 h; at 0.1 µM; active compounds read low; 0% = untreated, negative = ATP loss.
On to `C[C@H]1CN([C@@H](C)CO)C(=O)Cc2cc(NC(=O)CCCCCC(=O)Nc3ccccc3N)ccc2O[C@H]1CN(C)Cc1ccc(Oc2ccccc2)cc1`, for which the max activity is -23.9% (inactive).

Take `O=C1Nc2ccccc2C1=Nc1ccc(Br)cc1`: the max activity was -11.9% (inactive).

With `O=C(NCCc1ccccc1)c1ccccc1NC(=O)C1CCCO1` (configuration not stated), the max activity was -10.9% (inactive).

In the case of `CN(C)C(=O)c1cccc(-c2ccc(C3[C@@H]4CN(Cc5nccs5)C[C@H]3N4)cc2)c1` (some centres not stated), the max activity was -30.3% (inactive).

On to `Cc1occc1-c1n[nH]c(=S)n1C`, for which the max activity was -6.52% (inactive).

As to `COC(=O)C[C@H]1C=C[C@@H](NC(=O)Nc2ccc(C(F)(F)F)cc2)[C@H](CO)O1`, the max activity was -17.7% (inactive).

Consider `CCOc1ccc(N=C2C(=O)Nc3ccc(C)c(Br)c32)cc1`, for which the max activity was 11.1% (inactive).

Still in this assay, the particulars now being: HepG2 viability, ATP luminescence (CellTiter-Glo), 72 h; at 0.3 µM; active compounds read low; 0% = untreated, negative = ATP loss.
Take `Cc1cc(C(=O)Nc2ccc3c(c2)C(=O)N(C)[C@@H]2CC[C@@H](CC(=O)NCc4ccc(-c5ccccc5)cc4)O[C@H]2CO3)no1`: the max activity is -28.4% (inactive).

Take `O=C(NC1CCCC1)C(c1ccccc1)n1c(CSCCOc2ccccc2)nc2ccccc21` (configuration not stated): the max activity was -34.7% (inactive).

With `C[C@H]1CN([C@@H](C)CO)C(=O)c2cc(NS(=O)(=O)c3ccc(Cl)cc3)ccc2O[C@H]1CN(C)Cc1ccc(Cl)c(Cl)c1`, the max activity was -20.4% (inactive).

Consider `Cc1ccccc1NC(=O)C(=Cc1ccc(C(=O)O)cc1)C(=O)Nc1ccccc1C`, for which the max activity was -13.1% (inactive).

Take `C[C@@H]1CCCCO[C@@H](CN(C)C(=O)Cc2ccccc2)[C@@H](C)CN([C@@H](C)CO)C(=O)c2cc(NS(=O)(=O)c3ccc(F)cc3)ccc2O1`: the max activity is -23.7% (inactive).

For `COC(=O)C[C@H]1CC[C@H]2[C@@H](COc3ccc(NC(=O)Nc4cccc(Cl)c4)cc3C(=O)N2C)O1`, the max activity is -27.3% (inactive).

Staying with this assay, now noted: HepG2 viability, ATP luminescence (CellTiter-Glo), 72 h; at 0.9 µM; active compounds read low.
Turning to `COC(=O)[C@H]1[C@H](CO)[C@H]2Cn3c(ccc(-c4ccccc4F)c3=O)[C@@H]1N2CC1CCCC1`, the max activity was -23.4% (inactive).

The assay is the same for the next values; noted with them: HepG2 viability, ATP luminescence (CellTiter-Glo), 72 h; at 0.9 µM; active compounds read low; 0% = untreated, negative = ATP loss.
For `O=C(Nc1ccc(NC(=O)c2cc3ccccc3o2)cc1)c1ccc2c(c1)OCCO2`, the max activity is -30.6% (inactive).

As to `COc1ccc(/C=C2/SC(=S)N(CCCC(=O)Nc3ccccc3C(=O)O)C2=O)cc1`, the max activity is -31.4% (inactive).

For `S=c1[nH]nc(-c2cc(-c3ccccc3)n[nH]2)n1/N=C/C(Br)=C/c1ccccc1`, the max activity was -17.9% (inactive).

For the compound `O=C(NCc1ccccn1)c1ccc(CNS(=O)(=O)c2cccc(Cl)c2)cc1`, the max activity was -24.4% (inactive).

The assay is the same for the next values; noted with them: HepG2 viability, ATP luminescence (CellTiter-Glo), 72 h; at 2.6 µM; active compounds read low; 0% = untreated, negative = ATP loss.
For the compound `COC(=O)C[C@@H]1CC[C@@H]2[C@H](COc3ccc(NC(=O)c4cccc(Cl)c4)cc3C(=O)N2C)O1`, the max activity is -17.7% (inactive).

Still in this assay, the particulars now being: HepG2 viability, ATP luminescence (CellTiter-Glo), 72 h; at 2.85 µM; active compounds read low; 0% = untreated, negative = ATP loss.
As to `COCC(=O)Nc1ccc2c(c1)[C@@H]1C[C@@H](CC(=O)NCc3ccc(-c4ccccc4)cc3)O[C@@H](CO)[C@@H]1O2`, the max activity is -28% (inactive).

With `CCCc1nc2ccc(NC(=O)c3cccs3)cc2c(=O)n1Cc1ccccc1Cl`, the max activity is -32.5% (inactive).

Consider `C(=Cc1c[nH]c2ccccc12)c1ccc2ccccc2n1`, for which the max activity was -21.4% (inactive).

Take `Cc1ccccc1N=CC1=C(O)c2ccccc2C1=O`: the max activity was 18.8% (inactive).

Turning to `C(=N\Nc1ccc2ccccc2n1)/c1ccc2c(c1)OCO2`, the max activity is -36.5% (inactive).

For `Oc1c(Cl)cc(Cl)c(Cl)c1Cc1c(O)c(Cl)cc(Cl)c1Cl`, the max activity was -40.1% (inactive).

Still in this assay, the particulars now being: HepG2 viability, ATP luminescence (CellTiter-Glo), 72 h; at 3 µM; active compounds read low; 0% = untreated, negative = ATP loss.
`CCNC(=O)c1cc2c(c(-c3cccc(-c4cccc(OC)c4)c3)n1)[C@H](CCO)N([S@@](=O)C(C)(C)C)C2`: the max activity was -28.9% (inactive).

The assay is the same for the next values; noted with them: HepG2 viability, ATP luminescence (CellTiter-Glo), 72 h; at 8 µM; active compounds read low; 0% = untreated, negative = ATP loss.
For the compound `COc1ccc(C2c3cc4c(cc3OC(NNC(N)=O)C2C)OCO4)cc1` (configuration not stated), the max activity is -29.8% (inactive).

As to `COc1cc(/C=N/NS(=O)(=O)c2ccc(C)cc2)ccc1OCc1cccc(C(=O)O)c1`, the max activity is -15.9% (inactive).

As to `COC(=O)c1cccc(NC(=O)NC(=O)c2ccc(Cl)cc2)c1`, the max activity is -15.3% (inactive).

`O=C(Nc1cccc(Oc2ccc3c(c2)C(=O)NC3=O)c1)c1cccs1`: the max activity is -36% (inactive).

Regarding `Cc1ccc(Cl)cc1NC(=O)Cn1cc(C(F)(F)F)cc(Cl)c1=O`, the max activity is -28.6% (inactive).

The same assay, now with this note: HepG2 viability, ATP luminescence (CellTiter-Glo), 72 h; at 26 µM; active compounds read low; 0% = untreated, negative = ATP loss.
For the compound `CC(C)(C)C(=O)Cn1ncc(Cl)c(Cl)c1=O`, the max activity is -23.7% (inactive).

As to `O=C(O)c1ccc(N/N=C/c2c[nH]c3ccccc23)cc1`, the max activity was -17.3% (inactive).

In the case of `COc1ccc(-c2cn(-c3ccc(OC)cc3)c3[n+]2-c2ccccc2CC3)cc1`, the max activity was -23.2% (inactive).

Regarding `CC(=O)ON=C1C=CC(=C(C#N)c2ccccc2)C=C1`, the max activity is -27.6% (inactive).

Take `CCNC(=O)[C@@H]1[C@@H](CO)[C@@H]2Cn3c(ccc(C4=CCCCC4)c3=O)[C@H]1N2CC`: the max activity is -22.3% (inactive).

In the case of `COc1cc(OC)cc(-c2cc3nc(C)c(CCC(=O)O)c(C)n3n2)c1`, the max activity is -9.81% (inactive).

Take `COc1ccc(-c2nc3c(s2)CCc2onc(-c4ccc(OC)cc4)c2-3)cc1`: the max activity is -25.8% (inactive).

In the case of `COc1ccc(-c2ccc3c(c2)[C@H]2[C@H](CCN2S(=O)(=O)c2ccc(OC)cc2)[C@@H](CO)N3C)cc1`, the max activity was -27% (inactive).

For the compound `CCCn1nnc(NC(=S)NC(=O)C(C)(C)C)n1`, the max activity is -35.2% (inactive).

`O=C(O)c1ccc2cc(-c3ccccc3)[nH]c2c1`: the max activity is -25% (inactive).

For `CCOc1ccc(OCc2ccc(C(=O)NN=Cc3ccc[nH]3)cc2)cc1`, the max activity was -34% (inactive).

As for `O=C(CCCN1C(=O)/C(=C/c2ccccc2Cl)SC1=S)NNC(=O)c1ccc(Cl)cc1`, the max activity is 22.9% (inactive).

Regarding `COc1ccc(CNc2ncc(-c3ccc(F)cc3)n2C)c2ccccc12`, the max activity is -23.1% (inactive).

In the case of `CCC1=Nc2cc(C(=O)NCC3CCCO3)ccc2Sc2ccc(Br)cc21` (configuration not stated), the max activity was -32.3% (inactive).

Take `O=C(Nc1nc(-c2ccc(F)c(F)c2)cs1)c1ccc(OCC2CCCO2)cc1` (configuration not stated): the max activity is -28.7% (inactive).

Turning to `COc1ccc(C(=O)CN2C(=O)c3ccccc3S2(=O)=O)cc1`, the max activity was 10.2% (inactive).

For `CCCC[C@@H]1Cc2[nH][nH]c(=O)c2[C@H](c2ccc3ccccc3c2)O1`, the max activity is 22% (inactive).
